The record followed here is patent publication US20240345090A1, “EARLY DETECTION OF INNATE IMMUNE DYSFUNCTION AND TREATMENT OF CONDITIONS ASSOCIATED THEREWITH” (UNIVERSITY OF FLORIDA RESEARCH FOUNDATION, INCORPORATED, priority 2021, published 2024).

Series [1] relates to monocytes. The series is described as follows: Monocyte viability at different TNFα treatment durations. The format is cell-based, human. How it is done:
There is strong evidence in the literature for increased TNFα in PD^27,34-36 including in the brain, cerebrospinal fluid, and serum of Parkinson's patients^27 as well as in Parkinsonian mice^37,38. […] Therefore, the hypothesis that ex vivo stimulation of monocytes from healthy subjects with TNFα stimulates TH expression was tested, as measured by changes in the number of TH-expressing monocytes, and/or the amount of TH per monocyte. Flow cytometry was employed to address the former, and bio-ELISA to address the latter. Two million monocytes isolated from whole blood of healthy donors were treated for 4 hours with tissue plasminogen activator (TPA, 100 ng/ml, positive control for increased monocyte TH expression^7), TNFα (17 ng/mL)^61 and compared with monocytes treated with vehicle (FIG. 6A). Monocytes were assayed for TH expression by two complementary methods: flow cytometry^51 (FIG. 6B-F) and ELISA (FIG. 6G-H). It is noted that because a prolonged TNFα exposure can induce cell toxicity^82-86, multiple treatment durations were tested. […] Therefore, a 4-hour treatment strategy was selected in this study.

In series [2] the test system is TH protein in human monocytes. The series is described as follows: TH Bio-ELISA on lysates of treated monocytes. It is filed as cell-based. The conditions noted are these: healthy donor monocytes, 4 hours; TNFα 17 ng/ml, IL6 17 ng/ml, XPro1595 50 ng/ml. On the procedure:
Adherent cells in culture were lifted using 0.02% EDTA in PBS, diluted with 5 volumes of PBS, and centrifuged at 100×g. Non-adherent cells (PC12) were centrifuged at 100×g for 5 minutes at room temperature, and cell pellets were washed 3 times with 5 volumes of sterile PBS. Primary macrophages and primary murine neuron cultures were washed thrice with ice-cold PBS, on ice. Cell pellets and adherent primary cells were then lysed in ice-cold lysis buffer (10 mM NaCl, 10% glycerol (v/v), 1 mM EDTA, 1 mM EGTA, and HEPES 20 mM, pH 7.6), with Triton X-100 added to a final concentration of 1%, containing 1× protease inhibitor cocktail (Millipore-Sigma, 539131) for one hour at 4° C. with rotation. Resulting lysate was centrifuged at 12,000×g for 15 minutes at 4° C. Supernatant was set aside for protein quantification by Lowry assay (Biorad, 5000112) and the remainder was stored at −80° C. until use for downstream assays.
Antibodies used for ELISA are described in Table 4. […]
Duplicate standard and sample wells were averaged, and background-subtracted based on blank wells. The concentration of TH for each experimental group was calculated using a quadratic curve equation calculated in Graphpad Prism 8, then normalized to total protein concentration per sample as calculated using the Lowry assay. […]
On the technique in general: In an ELISA, binding on a coated surface is turned into a signal by an enzyme label.

In series [3] the test system is CD14+ monocytes. The series is described as follows: Flow cytometry count of TH+ monocytes after in vitro treatment. It is filed as cell-based, human. The conditions noted are these: TNFα 17 ng/ml, 4 hours; for number of TH+ monocytes, fold change relative to vehicle: healthy donor monocytes, 2 million per well, TPA 100 ng/ml, IL6 17 ng/ml, XPro1595 50 ng/ml, n=3 per group. How it is done:
Monocytes were isolated from total PBMCs prepared as described above^51 using negative selection (Biolegend, 480048) per manufacturer's instructions. Total PBMCs were Fc-blocked to reduce nonspecific binding, followed by incubations with biotin-conjugated antibody cocktail containing antibodies against all subsets except CD14 (negative selection), followed by incubation with magnetic-Avidin beads, allowing all subsets other than CD14+ monocytes to be bound to the magnet. Monocyte purity/enrichment was routinely verified to confirm that the final cell population was greater than 95% pure CD14+ cells (FIG. S2). CD14+ monocytes were collected from the supernatant fraction, washed, counted and density adjusted such that 2 million CD14+ monocytes were seeded per well (FIG. 5A) and treated for 4 hours with vehicle, TPA (100 ng/ml, Biolegend, 755802)^7, TNFα (17 ng/mL, Biolegend, 570102)^61, XPro1595 (50 ng/ml), or IL6 (17 ng/mL) in an ultra-low-adherence 6-well plate (Corning, 3471) to prevent adherence. Suspended cells from each treatment group were aspirated and placed in a 15 ml conical tube, with any remaining adherent cells detached by incubation with 700 uL Accumax solution for 3 minutes (Innovative Cell Technologies, AM105) and added to suspended cells. After pelleting cells by centrifugation (3 minutes×100 g, room temperature), cells were assayed by either flow cytometry^51 or lysed for ELISA as stated above (“Preparation of cell lysates”).
As previously published^51, cells for flow cytometry were fixed and permeabilized (eBioscience, 88-8824-00), and stained for intracellular marker TH (Millipore-Sigma, AB152, 1:100) followed by a species-specific secondary (anti-Rabbit BV421, BD, 565014). After resuspending the sample in a final volume of 250 uL PBS, 5 uL of Invitrogen CountBright Absolute Counting Beads (5000 beads/mL, Invitrogen, C36950) were added just prior to data acquisition (Sony Spectral Analyzer, SP6800). […]

For series [4], the system named is CD14+ monocytes. In words: Intracellular flow cytometry for Ki67 (cell proliferation). The conditions noted are these: TNFα treated monocytes. It is filed as cell-based, human. How it is done: To control for donor variability, identical quantities of counting beads were added as a reference. The number of TH+ monocytes was quantified by flow cytometry (FIG. 6B, left) in two experimental groups: TPA-treated and TNFα-treated. Monocytes in each condition were gated to isolate single cells expressing TH (FIG. 6B). […] A possible mechanism for this observation is either monocyte proliferation during the treatment period or an altered monocyte phenotype in response to TNFα, with no change in total number of monocytes. In other words, following TNFα treatment, TH+ monocytes may either be increasing in number (proliferation) or existing monocytes upregulate TH expression and become TH+ (phenotypic change). While a four-hour exposure to TNFα is an insufficient time period to induce proliferative events in immune cells^74, these possibilities could not be confidently ruled out without additional analyses. Therefore, monocyte proliferation was quantified by comparing the total number of monocytes per microliter of untreated vs. TNFα treated experimental group. […] A more rigorous approach was conducted to assess Ki67 expression as a measure of cell proliferation^87. […] While this finding explains our earlier observation of increased numbers of TH+ cells, the potential phenotypic shift following TNFα mediated immune stimulation was an unpredicted and novel finding.
(In general: Flow cytometry measures light scatter and fluorescence of single cells or particles in a stream.)

“Also recorded” adds a separate entry of the source.

Turning to TNFα, the cell viability entry in series [1] (4-hour TNFα (17 ng/ml) treatment) is “minimal effect on cell viability”. Also, the cell viability result in series [1] (longer TNFα exposure (more than 4 hours)) was “substantially decreased cell viability”. For the same substance, the “TH concentration (picogram per milligram total protein) relative to vehicle” value in series [2] is “significantly increased the amount of TH protein; also recorded: significantly increases”. Moreover, in series [3], the “total number of monocytes per microliter, untreated vs. treated” value was “unchanged” and the “number of TH+ monocytes, fold change relative to vehicle” value was “significant increases in TH-expressing monocytes relative to vehicle”. For the same substance, in series [4], the “Ki67 expression relative to vehicle-treated controls” value is listed as “no change in Ki67 expression”.
“IL6: interleukin-6 (IL6), a cytokine with pleiotropic effects”: the “TH concentration (picogram per milligram total protein) relative to vehicle” value in series [2] is “Neither IL6 nor IL6+XPro1595 significantly increased TH quantity”. Also, in series [3], the “number of TH+ monocytes, fold change relative to vehicle” value is “no significant change in the number of TH+ monocytes”.
